Experiments:
[1] = system: peritoneal macrophages; test: Transcription of M2 anti-inflammatory genes in primarily cultured intraperitoneal macrophages, real-time PCR; assay type: cell-based; details: mouse intraperitoneal macrophages, 20 ng/mL IL-4, 20 μM, 24 hours
Description: Peritoneal macrophages of 7 to 8-week-old C57BL/6 male mice were isolated, seeded in a 24-well dish at a density of 1×10^6 cells/well, and then cultured for 4 hours in an RPMI1640 medium supplemented with 10% fetal bovine serum (FBS). A peritoneal macrophage culture broth was treated with each of 20 ng/mL of IL-4 and 20 μM JC1-40 or JC1-42, as indicated herein, for 24 hours. Thereafter, mRNA expression levels of the M2 anti-inflammatory markers, such as IL-10, Arg1, Retnla, and CD206, […], were measured using a real-time PCR (i.e., real-time reverse transcriptase-polymerase chain reaction; quantitative polymerase chain reaction) assay. In this case, the peritoneal macrophages were kept at 37° C. in a thermo-hygrostat chamber in which 5% CO2 and 95% air were maintained.

[2] = system: peritoneal macrophages; test: Transcription of inflammatory genes in primarily cultured intraperitoneal macrophages, real-time PCR; assay type: cell-based; details: mouse intraperitoneal macrophages, 10 ng/mL LPS, 20 μM, 24 hours
Description: (§1) Peritoneal macrophages of 7 to 8-week-old C57BL/6 male mice were isolated, seeded in a 24-well dish at a density of 1×10^6 cells/well, and then cultured for 4 hours in an RPMI1640 medium supplemented with 10% fetal bovine serum (FBS). A peritoneal macrophage culture broth was treated with each of 10 ng/mL of LPS and 20 μM JC1-40 or JC1-42, as indicated herein, for 24 hours. In this case, the peritoneal macrophages were kept at 37° C. in a thermo-hygrostat chamber in which 5% CO2 and 95% air were maintained.
First, mRNA expression levels of the inflammatory markers, such as TNF-α, NOS2, IL-1β, and IL-6, which induce rheumatoid arthritis, were measured using a real-time PCR (i.e., real-time reverse transcriptase-polymerase chain reaction; quantitative polymerase chain reaction) assay. As a result, it can be seen that the mRNA levels of TNF-α, NOS2, IL-1β and IL-6, which are involved in the induction of inflammation, in the intraperitoneal macrophages were reduced when the cells were treated with JC1-40 or JC1-42, as shown in FIG. 2.

[3] = system: human peripheral blood mononuclear cells (PBMCs); test: Th17 and Treg differentiation of CD4+ cells from PBMCs, flow cytometry; assay type: cell-based; details: human CD4+ cells from PBMCs, 10, 20 and 40 μM, Th17 conditions 3 days
Description: CD4+ cells were isolated from peripheral blood mononuclear cells (PBMCs) of a healthy human, pre-treated with a varying concentration (10, 20, and 40 μM) of JC1-40, and then cultured for 3 days under Th17 differentiation conditions (including 0.5 μg/mL of anti-CD3, 0.5 μg/mL of anti-CD28, 10 μg/mL of anti-IFN-γ, 10 μg/mL of anti-IL-4, 20 ng/mL of IL-6, and 20 ng/mL of IL-1β). The expression of Th17 (anti IL-17 PE) and Treg (Anti Foxp3-FITC) in these cells was confirmed using flow cytometry. Also, an amount of IL-17 in these supernatants was measured using ELISA.

[4] = system: CD4+ T cells from spleens; test: IL-17 secretion of spleen T cells, sandwich ELISA of culture supernatant; assay type: cell-based; details: mouse spleen CD4+ T cells, Th17 conditions
Description: CD4+ T cells were isolated from the spleens of 7 to 8-week-old C57BL/6 male mice, seeded in a 48-well dish at a density of 5×10^5 cells/well, pre-treated with a varying concentration of JC1-40 (0.1, 0.5, 10, and 50 μM) for 24 hours, and then cultured for a day in an RPMI1640 medium supplemented with 10% fetal bovine serum (FBS). After the culturing, the cells were cultured for 3 days under Th17 differentiation conditions (including 0.5 μg/mL of an anti-CD3 antibody, 1 μg/mL of an anti-CD28 antibody, 2 ng/mL of TGF-β, 20 ng/mL of IL-6, 10 μg/mL of anti-IL-4, and 10 μg/mL of anti-IFN-γ). Thereafter, the cells were collected, washed with a FACS buffer for flow cytometry, and then blocked at 4° C. for 15 minutes to inhibit non-specific binding. As a cell surface marker, an antibody against CD4 (anti-CD4-PerCP) was added thereto, and reacted at 4° C. for 30 minutes, and the resulting reaction mixture was washed with a perm wash buffer. […] A change of the stained cells was analyzed using flow cytometry.
In addition, a culture supernatant of the JC1-40-treated Th17 cells was collected to determine an amount of IL-17 using a sandwich ELISA method. […] Then, a PNPP/DEA solution was added thereto, and developed color, and the optical density was then measured at a wavelength of 405 nm.

[5] = system: EL4 cell line; test: Foxp3 expression in T cell line, immunostaining and confocal microscopy; assay type: cell-based, mouse; details: EL4, 20 μM, Th17 differentiation conditions, confocal microscopy
[6] = system: Raw 264.7 macrophage cell line; test: Transcription of inflammatory genes in LPS-treated macrophage cell line, real-time PCR; assay type: cell-based, mouse; details: Raw 264.7, 50 ng/mL LPS, 20 μM, 24 hours
Description: A mouse macrophage cell line Raw 264.7 (ATCC TIB-71) was purchased from the American Type Culture Collection (ATCC). Raw 264.7 cells (2×10^5 cells/well) were seeded in a 6-well culture dish, and cultured for a day in a Dulbecco's modified Eagle's medium (DMEM) supplemented with 10% fetal bovine serum (FBS). The Raw 264.7 cells were kept at 37° C. in a thermo-hygrostat chamber in which 5% CO2 and 95% air were maintained. After the culturing, the cells were treated with 50 ng/mL of lipopolysaccharides (LPS) and 20 μM JC1-40 for 24 hours. Then, mRNA expression levels of the inflammatory markers, such as TNF-α, NOS2, IL-1β, and IL-6, which induce rheumatoid arthritis, were measured using a real-time PCR (i.e., real-time reverse transcriptase-polymerase chain reaction; quantitative polymerase chain reaction) assay.

[7] = system: peritoneal macrophages; test: M1 differentiation of intraperitoneal macrophages, PE-CD80 flow cytometry; assay type: cell-based; details: mouse intraperitoneal macrophages, 10 ng/mL LPS, 20 μM, 24 hours
Description: as §1
Further, a PE-CD80 antibody (eBioscience), which is a M1 marker for recognizing a change of M1 cells, was incubated in these cells for 30 minutes, and then subjected to flow cytometry. As a result, it was confirmed that the M1 differentiation was suppressed when the macrophages were treated with JC1-40, as shown in FIG. 3.

[8] = system: osteoclast precursor differentiated from human PBMCs; test: Osteoclast differentiation-related factor expression in osteoclast precursor from PBMCs, real-time PCR; assay type: cell-based; details: M-CSF 25 ng/mL, RANKL 30 ng/mL, 10, 20, 40 μM
Description: PBMCs of a healthy human were isolated, stimulated with M-CSF (25 ng/mL) for 3 days to induce differentiation into an osteoclast precursor. After 3 days, a medium was replaced with a fresh one, and the cells were stimulated with varying concentrations of M-CSF (25 ng/mL), RANKL (30 ng/mL), and JC1-40 (10, 20, 40 μM), and cultured for 3 days. After the medium was replaced every 3 days, the same stimulus was applied to the cells while a differentiation state of the cells was observed.
RNA was isolated from the differentiated cells, and synthesized into cDNA. Thereafter, a change in mRNA expression levels of the osteoclast differentiation-related factors, Cathepsin K and TRAP, was analyzed using real-time PCR.

[9] = system: EL4 cell line; test: RORα and IL-17 transcription in T cell line under Th17 differentiation conditions, real-time PCR; assay type: cell-based, mouse; details: EL4, 20 μM pre-treatment 24 hours, Th17 differentiation conditions 48 hours
Description: A mouse T cell EL4 cell line (5×10^5 cells/well) was seeded in a 24-well culture dish, pre-treated with 20 μM JC1-40 for 24 hours, and cultured for a day in a RPMI 1640 medium supplemented with 10% FBS. The EL4 cell line was kept at 37° C. in a thermo-hygrostat chamber in which 5% CO2 and 95% air were maintained. After the culturing, the cells were cultured for 48 hours under Th17 differentiation conditions (including 0.5 μg/mL of an anti-CD3 antibody, 1 μg/mL of an anti-CD28 antibody, 2 ng/mL of TGF-β, 20 ng/mL of IL-6, 10 μg/mL of anti-IL-4, and 10 μg/mL of anti-IFN-γ). Expression levels of RORα, which is a JC1-40-activated nuclear receptor, and IL-17, which is an inflammatory marker inducing rheumatoid arthritis, were measured using a real-time PCR (i.e., real-time reverse transcriptase-polymerase chain reaction; quantitative polymerase chain reaction) assay.

[10] = system: CD4+ T cells from spleens; test: Th17 differentiation of primarily cultured spleen T cells, flow cytometry; assay type: cell-based; details: mouse spleen CD4+ T cells, 0.1, 0.5, 10 and 50 μM, Th17 conditions 3 days
Description: CD4+ T cells were isolated from the spleens of 7 to 8-week-old C57BL/6 male mice, seeded in a 48-well dish at a density of 5×10^5 cells/well, pre-treated with a varying concentration of JC1-40 (0.1, 0.5, 10, and 50 μM) for 24 hours, and then cultured for a day in an RPMI1640 medium supplemented with 10% fetal bovine serum (FBS). After the culturing, the cells were cultured for 3 days under Th17 differentiation conditions (including 0.5 μg/mL of an anti-CD3 antibody, 1 μg/mL of an anti-CD28 antibody, 2 ng/mL of TGF-β, 20 ng/mL of IL-6, 10 μg/mL of anti-IL-4, and 10 μg/mL of anti-IFN-γ). Thereafter, the cells were collected, washed with a FACS buffer for flow cytometry, and then blocked at 4° C. for 15 minutes to inhibit non-specific binding. As a cell surface marker, an antibody against CD4 (anti-CD4-PerCP) was added thereto, and reacted at 4° C. for 30 minutes, and the resulting reaction mixture was washed with a perm wash buffer. After a Cytofix/Cytoperm process was performed at 4° C. for 20 minutes, the mixture was washed with a perm wash buffer. Anti-IL-17 PE was added thereto, and reacted at 4° C. for 30 minutes, and the resulting reaction mixture was washed with a perm wash buffer. A change of the stained cells was analyzed using flow cytometry.

[11] = system: type II collagen-induced arthritis (CIA); test: Type II collagen-induced arthritis (CIA) animal model; assay type: in vivo, mouse; details: DBA male mice
Description: 6-week-old DBA male mice were inoculated with bovine CII (Chondrex Inc.) emulsified in CFA (Chondrex Inc.), and re-inoculated after 15 days to induce rheumatoid arthritis. After the first administration, JC1-40 dissolved in 0.5% carboxymethyl cellulose (CMC) was continuously orally administered three times a week to the mice at a dose of 10 mg/kg. A 0.5% CMC vehicle and 5 mg/kg of Enbrel as the positive control were administered to the other groups in the same manner. The ratio of the population of the mice developing an arthritic disease was calculated as incidence, and the arthritic tissues were pathophysiologically examined to calculate a degree of progression of the disease as a score and compare conditions of the rheumatoid arthritis disease between the groups. The clinical scores were evaluated using a clinical scoring system which scores the swelling and redness in feet or tail regions by observing arthritis lesions of mice with the naked eye every day to check a degree of progression of inflammatory diseases in the joints.

[12] = 10 mg/kg orally three times a week

Row | Structure (SMILES) | transcription level of Arg1 [1] | transcription level of CD206 [1] | transcription level of IL-10 [1] | transcription level of Retnla [1] | mRNA level of IL-1β [2] | mRNA level of IL-6 [2] | mRNA level of NOS2 [2] | mRNA level of TNF-α [2] | other results
1 | CNC(=S)NCc1ccc(Oc2ccccc2)cc1 [JC1-42, 1-(4-phenoxy-benzyl)-3-methyl-thiourea] | increased | increased | increased | increased | reduced | reduced | reduced | reduced | –
2 | CNC(=S)NCc1ccc(OCc2ccccc2)cc1 [JC1-40, 1-(4-benzyloxy-benzyl)-3-methyl-thiourea] | increased | increased | increased | increased | reduced | reduced | reduced | reduced | amount of (FOXP3 positive) cells differentiated into Treg [3]: increased; amount of (IL-17 positive) T cells differentiated into Th17 [3]: decreased; amount of secreted IL-17 protein in the culture broth [4]: reduced; expression level of Foxp3 [5]: increased; transcription level of IL-1β [6]: reduced; transcription level of IL-6 [6]: reduced; transcription level of NOS2 [6]: reduced; transcription level of TNF-α [6]: reduced; M1 differentiation (CD80 marker) [7]: suppressed; expression of osteoclast differentiation-related factors (Cathepsin K and TRAP mRNA) [8]: significantly reduced; transcription level of IL-17 [9]: decreased; transcription level of the nuclear receptor RORα [9]: increased; amount of IL-17 positive cells differentiated into Th17 [10]: decreased; arthritis incidence [11, 12]: suppressed; arthritis scores [11, 12]: suppressed; effect compared to Enbrel (positive control) ([11]; 10 mg/kg orally vs 5 mg/kg Enbrel): superior effect

From patent publication US20180235912A1, “PHARMACEUTICAL COMPOSITION FOR PREVENTING OR TREATING AUTOIMMUNE DISEASES COMPRISING THIOUREA DERIVATIVE” (SEOUL NATIONAL UNIVERSITY R & DB FOUNDATION, priority 2015, published 2018)
